# According to paper PMC7961786, “Magic Peptide: Unique Properties of the LRR11 Peptide in the Activation of Leukotriene Synthesis in Human Neutrophils” (International Journal of Molecular Sciences, 2021):
# “Also recorded” adds a separate entry of the source.
# How the values were obtained:
# [1] = tested on: human neutrophils (PMNLs); experiment: Binding and uptake of FAM-labeled ODNs by neutrophils (flow cytometry); format: cell-based; details: 1 µM LRR11, 0.15 µM FPS-ZM1; n = 3; Figure 7
# Method: Figure 6 The LRR11 peptide affects the binding and uptake of ODNs by neutrophilic granulocytes. PMNLs (1 × 10^6/mL) in HBSS/HEPES were incubated for 20 min at 37 °C in 5% CO2 with 1 µM FAM-labeled ODN, supplemented or not with 1 µM LRR11 peptide. Both the total ODN accumulation (red) and its intracellular constituent (black) were analyzed by flow cytometry. Surface fluorescence was quenched by trypan blue (TB) solution. Values represent the means ± SEM of FAM fluorescence intensities (RFU, relative fluorescence units) (n = 8). ** p < 0.01; *** p < 0.005, **** p < 0.001 for specified data pairs, as indicated by two-way ANOVA followed by Tukey’s multiple comparison test. Mean fluorescence intensities of unstained PMNLs were 62 ± 12 and 39 ± 5.6 without or after TB quenching, respectively.
# Figure 7 RAGE antagonist effect on oligonucleotide penetration into neutrophil cells. […] Both total oligonucleotide accumulation (A) and its intracellular constituent (B) were analyzed by flow cytometry. The surface fluorescence was quenched by trypan blue solution. Values represent the means ± SEM of FAM fluorescence intensities (RFU) (n = 3). * p < 0.05; […]; *** p < 0.005 for the pair of data specified, as indicated by two-way ANOVA followed by Tukey’s multiple comparison test. Fluorescence intensities of unstained controls were 62 ± 14 and 49 ± 6 without, or after TB quenching, respectively. […]
# PMNLs = experiment: Phagocytosis of FITC-labeled S. typhimurium by neutrophils; format: cell-based, human; details: 1 µM ODN +/- 1 µM LRR11, FITC-labeled S. typhimurium 20 min; n = 3; Figure S2b
# Method: Figure S2b. Influence of LRR11 and ODNs on phagocytic activity of neutrophils. PMNLs supplemented with 1 µM ODN +/- 1 µM LRR11, except for control samples containing HBSS/HEPES instead of ODNs, were incubated for 20 min in Eppendorf tubes at 37 °C in 5% CO2 with continuous stirring. FITC-labeled S. typhimurium were then added for next 20 min, followed by FACS analysis (excitation: 488 nm, emission: 525 nm). Both the relative amounts of PMNLs involved in phagocytosis (A, B) and the fluorescence intensities, reflecting the average number of bacteria captured per cell (C, D), were estimated. To distinguish between internalized and surface-bound bacterial cells, trypan blue at a working concentration of 1 mg/ml, was used to quench the surface FITC fluorescence caused by the attached bacteria. Thus, each series of samples was duplicated to obtain results both without (A, C) and with (B, D) TB quenching, which corresponds to the total interaction and uptake of bacteria. Averaged flow cytometry data are presented, including means ± SEM for the percentages of FITC-positive (i.e., phagocytic) cells (A, B), and mean ± SEM for fluorescence intensities of FITC-positive subpopulations (C, D) (n=3; * p < 0.05; ** p < 0.01 in comparison with corresponding controls, ns – non significant, as indicated by two-way ANOVA followed by Dunnett’s or Tukey’s multiple comparison tests). […]
# [2] = tested on: 5′-biotinylated G-rich ODN; experiment: TSM acoustic biosensor, peptide binding to immobilized G-rich ODN; details: LRR11 1 to 100 nM, Hanks buffer
# Excerpt: To characterize the interaction of the studied synthetic ODNs with the LRR11 peptide, we applied the thickness shear mode (TSM) acoustic biosensor method, which is based on the investigation of ultrasonic waves in piezoelectric materials such as AT-cut quartz. This approach involved immobilizing a 5′-biotinylated ODN on the surface of TSM transducer covered by NeutrAvidin and then adding the LRR11 peptide. An unrelated peptide (URP) with a random primary structure ([…]) was used as a negative control. The measurement procedure was divided into several steps, in which each immobilization stage was followed by washing with an appropriate buffer solution; when peptide solutions at different concentrations (from 1 to 100 nM) were added to the surface-modified TSM transducer, a wash with Hanks buffer was used before increasing the peptide concentration.
# Eight MHz AT-cut piezoelectric quartz crystal transducer was obtained from CH Instruments, Austin, TX, USA. The transducer was covered on both sides with thin layers of gold that served as electrodes (working area 0.2 cm^2). Prior ODNs immobilization, the crystal was carefully cleaned with basic Piranha solution (29% NH3, 30% H2O and H2O2 with volumetric 1:5:1 ratio, respectively) for 25 min. After the thorough cleaning, the crystal was positioned between two silicon O-rings in a flow-through cell. […]
sequence,measurement,setting,value
"QLRKLNLSFNYQKRVSFAHLSLAPSFGSLV [LRR11, 30 amino acid peptide from leucine-rich repeat of TLR9]",effect of LRR11 on FPS-ZM1 inhibition of ODN internalization,[1],overcomes the inhibitory effect of FPS-ZM1; also recorded: the maximum ODN delivery into cells is observed in the presence of LRR11 and a RAGE antagonist
same,effect on bacteria engulfment,PMNLs,LRR11 did not affect this
same,interaction with G-rich ODN,[2],does not interact with the LRR11 peptide at any concentration; also recorded: no significant change of resonant frequency was observed
